Assay results: paper doi:10.1101/675579v1, “Oncoprotein GT198 is a direct target of taxol” (biorxiv, 2019)

How the values were obtained:
Format in all cases: binding
[1] = molecular target: T1, GT198 (wild type full length, His-tagged) (Homo sapiens, UniProt Q9P2W1); assay: competition with biotinylated ssDNA on protein-coated plates, streptavidin-HRP chemiluminescence
T1 construct: gene PSMC3IP; full length aa 1-217, N-terminal His tag kept, E. coli BL21(DE3)pLysS, Ni-NTA; homodimer
T1 sequence (Q9P2W1 1-217): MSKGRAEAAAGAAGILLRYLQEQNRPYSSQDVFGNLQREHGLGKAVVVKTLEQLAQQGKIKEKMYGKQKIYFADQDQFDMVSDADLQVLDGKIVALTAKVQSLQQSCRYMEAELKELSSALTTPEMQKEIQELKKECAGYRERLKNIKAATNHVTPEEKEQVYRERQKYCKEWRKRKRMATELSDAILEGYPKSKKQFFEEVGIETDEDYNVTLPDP

[2] = molecular target: T1, GT198 (wild type full length, His-tagged); assay: competition with Oregon green-taxol on protein-coated plates, fluorescence
[3] = molecular target: T2, GT198 DBD fragment 126-217 (Homo sapiens, UniProt Q9P2W1); assay: competition with biotinylated ssDNA on protein-coated plates, streptavidin-HRP chemiluminescence
T2 construct: gene PSMC3IP
T2 sequence (Q9P2W1 126-217): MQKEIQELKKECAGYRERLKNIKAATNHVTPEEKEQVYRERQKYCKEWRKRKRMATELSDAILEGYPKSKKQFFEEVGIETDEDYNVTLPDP

[4] = molecular target: T2, GT198 DBD fragment 126-217; assay: competition with Oregon green-taxol on protein-coated plates, fluorescence

IC50 [1]: 8.6 nM
IC50 [2]: 8.8 nM
IC50 [3]: 7.3 nM
IC50 [4]: 15.2 nM
Compound: CC(=O)O[C@H]1C(=O)[C@@]2(C)[C@H]([C@H](OC(=O)c3ccccc3)[C@]3(O)C[C@H](OC(=O)[C@H](O)[C@@H](NC(=O)c4ccccc4)c4ccccc4)C(C)=C1C3(C)C)[C@]1(OC(C)=O)CO[C@@H]1C[C@@H]2O [taxol]
